In patent US20220071952A1, “METHODS OF TREATING AND PREVENTING HEPATOTOXICITY” (Natreon, Inc., priority 2020, published 2022):

Assays:
[1] = test system: alcohol-induced hepatotoxicity in mice; assay: Synergistic hepatoprotective activity of DBPs against alcohol-induced hepatotoxicity (Example IV); conditions: for ACP / ALP / ALT / AST / Total Protein: alcohol 5 g/kg, Ursocol 250 mg/kg b.w., mean ± SEM, n=4
Experimental: Hepatotoxicity was induced by oral administration of alcohol (ethanol: 5 g/kg) from stock 400 mg/ml twice daily for 15 days.
3-OH-DBP and 3,8-(OH)2-DBP were each separately suspended in 0.3% CMC and administered at a dose of 10 mg/kg body weight per orally for 15 days. During the 15 days treatment, body weight, food intake, and water intake were monitored at regular intervals. Following 15 days of treatment physical parameters (relative organ weight) and biochemical parameters (plasma total protein content, ALT, AST, ALP, and ACP) were studied.
3-OH-DBP (2 mg/kg body weight, 10 mg/kg body weight);
3,8-(OH)2-DBP (10 mg/kg body weight, 50 mg/kg body weight); and

[2] = test system: CCl4-induced hepatotoxicity in mice; assay: Synergistic hepatoprotective activity of DBPs against CCl4-induced hepatotoxicity (Example IV); conditions: CCl4 1 ml/kg, Ursocol 250 mg/kg b.w., mean ± SEM, n=4

C[C@H](CCC(=O)O)[C@H]1CC[C@H]2[C@@H]3[C@@H](O)C[C@@H]4C[C@H](O)CC[C@]4(C)[C@H]3CC[C@]12C [Ursocol, ursodeoxycholic acid, reference compound]
ACP ([1]; female mice): 2.4 ± 0.47 U/L | ALP ([1]; female mice): 49 ± 6.5 IU/L | ALT ([1]; female mice): 26.63 ± 2.85 IU/L | AST ([1]; female mice): 25.39 ± 4.08 IU/L | Total Protein ([1]; female mice): 5.97 ± 0.53 g/dL | ACP ([1]; male mice): 3.19 ± 0.36 U/L | ALP ([1]; male mice): 86.1 ± 3.73 IU/L | ALT ([1]; male mice): 26.6 ± 1.94 ^ IU/L | AST ([1]; male mice): 24.3 ± 3.84 IU/L | Total Protein ([1]; male mice): 8.83 ± 0.16 g/dL | Relative liver weight ([1]; male mice, alcohol study of Example IV): significantly increased | ACP ([2]; female mice): 29 ± 3.3 U/L | ALP ([2]; female mice): 45 ± 6.9 IU/L | ALT ([2]; female mice): 50 ± 5.6 IU/L | AST ([2]; female mice): 49 ± 6.8 IU/L | Total Protein ([2]; female mice): 6 ± 0.22 g/dL | ACP ([2]; male mice): 22 ± 4.4 ^ U/L | ALP ([2]; male mice): 60 ± 9.9 ^ IU/L | ALT ([2]; male mice): 21 ± 2.6 ^ IU/L | AST ([2]; male mice): 18 ± 3.4 ^ IU/L | Total Protein ([2]; male mice): 6 ± 0.55 g/dL
